This test has as its target T1, PD-1/PD-L1 (Homo sapiens, UniProt Q9NZQ7).
T1 construct: TVMV protease site linker (C); made in house; host or cells: HEK293T cells
The experiment in a line: PD-1/PD-L1 Homogenous Time-Resolved Fluorescence (HTRF) binding assay. The note with it: PD-L1-His 10 nM, PD-1-Ig 20 nM. The essentials:
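Inhibitors pre-incubated 15 min with PD-L1-His extracellular domain (10 nM final) in dPBS with 0.1% BSA and 0.05% Tween-20, then PD-1-Ig (20 nM final) added for a further 15 min. Read-out by HTRF with europium cryptate anti-Ig (1 nM) and APC anti-His (20 nM). Related pairs: PD-1-Ig/PD-L2-His (20/5 nM), CD80-His/PD-L1-Ig (100/10 nM).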

T1 sequence (Q9NZQ7 18-239): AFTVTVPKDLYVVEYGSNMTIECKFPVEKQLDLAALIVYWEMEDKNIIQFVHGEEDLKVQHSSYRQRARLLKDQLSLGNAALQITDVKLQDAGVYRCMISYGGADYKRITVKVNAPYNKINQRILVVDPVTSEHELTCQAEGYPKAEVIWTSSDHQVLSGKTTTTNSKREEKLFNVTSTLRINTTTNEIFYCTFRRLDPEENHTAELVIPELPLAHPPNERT

Regarding `Cc1c(COc2cc(OCc3cncc(C#N)c3)c(CNCc3nc4ccccc4s3)cc2Cl)cccc1-c1cccc(OCCCN2CC[C@@H](O)C2)c1C` [Example 2549, (R)-5-((2-(((benzo[d]thiazol-2-ylmethyl)amino)methyl)-4-chloro-5-((3′-(3-(3-hydroxypyrrolidin-1-yl)propoxy)-2,2′-dimethyl-[1,1′-biphenyl]-3-yl)methoxy)phenoxy)methyl)nicotinonitrile], the 50% inhibitory concentration (IC50) (commonly the concentration at which inhibition is half-maximal) came out at 33.2 nM.
Take `Cc1c(COc2cc(OCc3cncc(C#N)c3)c(CN(C)Cc3ncco3)cc2Cl)cccc1-c1cccc(OCCCN2CC[C@@H](O)C2)c1C` [Example 2550, (R)-5-((4-chloro-5-((3′-(3-(3-hydroxypyrrolidin-1-yl)propoxy)-2,2′-dimethyl-[1,1′-biphenyl]-3-yl)methoxy)-2-((methyl(oxazol-2-ylmethyl)amino)methyl)phenoxy)methyl)nicotinonitrile]: the IC50 amounted to 0.5 nM.
With `Cc1c(COc2cc(OCc3cncc(C#N)c3)c(CN(C)Cc3cnco3)cc2Cl)cccc1-c1cccc(OCCCN2CC[C@@H](O)C2)c1C` [Example 2551, (R)-5-((4-chloro-5-((3′-(3-(3-hydroxypyrrolidin-1-yl)propoxy)-2,2′-dimethyl-[1,1′-biphenyl]-3-yl)methoxy)-2-((methyl(oxazol-5-ylmethyl)amino)methyl)phenoxy)methyl)nicotinonitrile], the IC50 worked out at 2.7 nM.
Under `Cc1c(COc2cc(OCc3cncc(C#N)c3)c(CN(C)Cc3cc(C4CC4)on3)cc2Cl)cccc1-c1cccc(OCCCN2CC[C@@H](O)C2)c1C` [Example 2552, (R)-5-((4-chloro-2-((((5-cyclopropylisoxazol-3-yl)methyl)(methyl)amino)methyl)-5-((3′-(3-(3-hydroxypyrrolidin-1-yl)propoxy)-2,2′-dimethyl-[1,1′-biphenyl]-3-yl)methoxy)phenoxy)methyl)nicotinonitrile] stands 7.3 nM.
The compound `CCc1csc(CN(C)Cc2cc(Cl)c(OCc3cccc(-c4cccc(OCCCN5CC[C@@H](O)C5)c4C)c3C)cc2OCc2cncc(C#N)c2)n1` [Example 2553, (R)-5-((4-chloro-2-((((4-ethylthiazol-2-yl)methyl)(methyl)amino)methyl)-5-((3′-(3-(3-hydroxypyrrolidin-1-yl)propoxy)-2,2′-dimethyl-[1,1′-biphenyl]-3-yl)methoxy)phenoxy)methyl)nicotinonitrile] came in with a concentration for half-maximal inhibition (IC50) of 30.1 nM. Against the preceding compound, the IC50 is about 4.1-fold higher.
In the case of `Cc1c(COc2cc(OCc3cncc(C#N)c3)c(CN(C)Cc3nc4ccccc4s3)cc2Cl)cccc1-c1cccc(OCCCN2CC[C@@H](O)C2)c1C` [Example 2554, (R)-5-((2-(((benzo[d]thiazol-2-ylmethyl)(methyl)amino)methyl)-4-chloro-5-((3′-(3-(3-hydroxypyrrolidin-1-yl)propoxy)-2,2′-dimethyl-[1,1′-biphenyl]-3-yl)methoxy)phenoxy)methyl)nicotinonitrile] it was 258 nM; in that of `Cc1c(COc2cc(OCc3cncc(C#N)c3)c(CNCc3nn(C)c4ccccc34)cc2Cl)cccc1-c1cccc(OCCCN2CC[C@@H](O)C2)c1C` [Example 2555, (R)-5-((4-chloro-5-((3′-(3-(3-hydroxypyrrolidin-1-yl)propoxy)-2,2′-dimethyl-[1,1′-biphenyl]-3-yl)methoxy)-2-((((1-methyl-1H-indazol-3-yl)methyl)amino)methyl)phenoxy)methyl)nicotinonitrile], 0.4 nM; in that of `Cc1c(COc2cc(OCc3cncc(C#N)c3)c(CNCc3ccnn3C)cc2Cl)cccc1-c1cccc(OCCCN2CC[C@@H](O)C2)c1C` [Example 2556, (R)-5-((4-chloro-5-((3′-(3-(3-hydroxypyrrolidin-1-yl)propoxy)-2,2′-dimethyl-[1,1′-biphenyl]-3-yl)methoxy)-2-((((1-methyl-1H-pyrazol-5-yl)methyl)amino)methyl)phenoxy)methyl)nicotinonitrile], 0.8 nM.
In the case of `Cc1c(COc2cc(OCc3cncc(C#N)c3)c(CNCc3nc4ccccc4n3Cc3ccccc3)cc2Cl)cccc1-c1cccc(OCCCN2CC[C@@H](O)C2)c1C` [Example 2557, (R)-5-((2-((((1-benzyl-1H-benzo[d]imidazol-2-yl)methyl)amino)methyl)-4-chloro-5-((3′-(3-(3-hydroxypyrrolidin-1-yl)propoxy)-2,2′-dimethyl-[1,1′-biphenyl]-3-yl)methoxy)phenoxy)methyl)nicotinonitrile] it was 73.3 nM.
The compound `COCc1noc(CNCc2cc(Cl)c(OCc3cccc(-c4cccc(OCCCN5CC[C@@H](O)C5)c4C)c3C)cc2OCc2cncc(C#N)c2)n1` [Example 2558, (R)-5-((4-chloro-5-((3′-(3-(3-hydroxypyrrolidin-1-yl)propoxy)-2,2′-dimethyl-[1,1′-biphenyl]-3-yl)methoxy)-2-((((3-(methoxymethyl)-1,2,4-oxadiazol-5-yl)methyl)amino)methyl)phenoxy)methyl)nicotinonitrile] had an IC50 of 6.4 nM.
Consider `Cc1c(COc2cc(OCc3cncc(C#N)c3)c(CN(C)Cc3ccnn3C)cc2Cl)cccc1-c1cccc(OCCCN2CC[C@@H](O)C2)c1C` [Example 2559, (R)-5-((4-chloro-5-((3′-(3-(3-hydroxypyrrolidin-1-yl)propoxy)-2,2′-dimethyl-[1,1′-biphenyl]-3-yl)methoxy)-2-((methyl((1-methyl-1H-pyrazol-5-yl)methyl)amino)methyl)phenoxy)methyl)nicotinonitrile], for which the half-inhibitory concentration (IC50) is 4.1 nM.
Consider `COCc1noc(CN(C)Cc2cc(Cl)c(OCc3cccc(-c4cccc(OCCCN5CC[C@@H](O)C5)c4C)c3C)cc2OCc2cncc(C#N)c2)n1` [Example 2560, (R)-5-((4-chloro-5-((3′-(3-(3-hydroxypyrrolidin-1-yl)propoxy)-2,2′-dimethyl-[1,1′-biphenyl]-3-yl)methoxy)-2-((((3-(methoxymethyl)-1,2,4-oxadiazol-5-yl)methyl)(methyl)amino)methyl)phenoxy)methyl)nicotinonitrile], for which the IC50 turned out to be 4.5 nM.
`Cc1c(COc2cc(OCc3cncc(C#N)c3)c(CN(C)Cc3nc4ccccc4n3Cc3ccccc3)cc2Cl)cccc1-c1cccc(OCCCN2CC[C@@H](O)C2)c1C` [Example 2561, (R)-5-((2-((((1-benzyl-1H-benzo[d]imidazol-2-yl)methyl)(methyl)amino)methyl)-4-chloro-5-((3′-(3-(3-hydroxypyrrolidin-1-yl)propoxy)-2,2′-dimethyl-[1,1′-biphenyl]-3-yl)methoxy)phenoxy)methyl)nicotinonitrile] gave an IC50 of 746 nM.
On to `Cc1c(COc2cc(OCc3cncc(C#N)c3)c(CN(C)Cc3nn(C)c4ccccc34)cc2Cl)cccc1-c1cccc(OCCCN2CC[C@@H](O)C2)c1C` [Example 2562, (R)-5-((4-chloro-5-((3′-(3-(3-hydroxypyrrolidin-1-yl)propoxy)-2,2′-dimethyl-[1,1′-biphenyl]-3-yl)methoxy)-2-((methyl((1-methyl-1H-indazol-3-yl)methyl)amino)methyl)phenoxy)methyl)nicotinonitrile], for which the concentration for half-maximal inhibition (IC50) amounted to 9.5 nM.
Take `Cc1c(COc2cc(OCc3cncc(C#N)c3)c(CNC3CCc4[nH]ncc4C3)cc2Cl)cccc1-c1cccc(OCCCN2CC[C@@H](O)C2)c1C` (stereo partly drawn) [Example 2563, 5-((4-chloro-5-((3′-(3-((R)-3-hydroxypyrrolidin-1-yl)propoxy)-2,2′-dimethyl-[1,1′-biphenyl]-3-yl)methoxy)-2-(((4,5,6,7-tetrahydro-1H-indazol-5-yl)amino)methyl)phenoxy)methyl)nicotinonitrile]: the 50% inhibitory concentration (IC50) was 0.5 nM. This IC50 lies about 19-fold lower than the previous one.
`Cc1c(COc2cc(OCc3cncc(C#N)c3)c(CN(C)C3CCc4[nH]ncc4C3)cc2Cl)cccc1-c1cccc(OCCCN2CC[C@@H](O)C2)c1C` (stereo partly drawn) [Example 2564, 5-((4-chloro-5-((3′-(3-((R)-3-hydroxypyrrolidin-1-yl)propoxy)-2,2′-dimethyl-[1,1′-biphenyl]-3-yl)methoxy)-2-((methyl(4,5,6,7-tetrahydro-1H-indazol-5-yl)amino)methyl)phenoxy)methyl)nicotinonitrile] came in with an IC50 of 2.7 nM. Compared with the last compound, the IC50 is about 5.4-fold higher.
For `Cc1c(COc2cc(OCc3cncc(C#N)c3)c(CNCc3ncc4ccccn34)cc2Cl)cccc1-c1cccc(OCCCN2CC[C@@H](O)C2)c1C` [Example 2565, (R)-5-((4-chloro-5-((3′-(3-(3-hydroxypyrrolidin-1-yl)propoxy)-2,2′-dimethyl-[1,1′-biphenyl]-3-yl)methoxy)-2-(((imidazo[1,5-a]pyridin-3-ylmethyl)amino)methyl)phenoxy)methyl)nicotinonitrile], the IC50 came out at 4.7 nM. Compared with the last compound, the IC50 is about 1.7-fold higher.
`Cc1c(COc2cc(OCc3cncc(C#N)c3)c(CNCc3ncc(-c4ccccc4)o3)cc2Cl)cccc1-c1cccc(OCCCN2CC[C@@H](O)C2)c1C` [Example 2566, (R)-5-((4-chloro-5-((3′-(3-(3-hydroxypyrrolidin-1-yl)propoxy)-2,2′-dimethyl-[1,1′-biphenyl]-3-yl)methoxy)-2-((((5-phenyloxazol-2-yl)methyl)amino)methyl)phenoxy)methyl)nicotinonitrile] had an IC50 of 48.6 nM.
Compound `Cc1c(COc2cc(OCc3cncc(C#N)c3)c(CN3CCc4c(cnn4-c4ccccc4)C3)cc2Cl)cccc1-c1cccc(OCCCN2CC[C@@H](O)C2)c1C` [Example 2567, (R)-5-((4-chloro-5-((3′-(3-(3-hydroxypyrrolidin-1-yl)propoxy)-2,2′-dimethyl-[1,1′-biphenyl]-3-yl)methoxy)-2-((1-phenyl-1,4,6,7-tetrahydro-5H-pyrazolo[4,3-c]pyridin-5-yl)methyl)phenoxy)methyl)nicotinonitrile] yielded an IC50 of 22.8 nM.
In the case of `Cc1c(COc2cc(OCc3cncc(C#N)c3)c(CN3CCCC(c4cc[nH]n4)C3)cc2Cl)cccc1-c1cccc(OCCCN2CC[C@@H](O)C2)c1C` (stereo partly drawn) [Example 2568, 5-((2-((3-(1H-pyrazol-3-yl)piperidin-1-yl)methyl)-4-chloro-5-((3′-(3-((R)-3-hydroxypyrrolidin-1-yl)propoxy)-2,2′-dimethyl-[1,1′-biphenyl]-3-yl)methoxy)phenoxy)methyl)nicotinonitrile] it was 2.5 nM.

(Values after patent US20240124417A1, “COMPOUNDS USEFUL AS IMMUNOMODULATORS” (Bristol-Myers Squibb Company, priority 2019, published 2024).)
